Reference: patent US20260242759A1, “GQ/11 Protein Peptidomimetics” (Vrije Universiteit Brussel, priority 2022, published 2026)
Positions of bridges follow the written chain, without caps; N, C: chain ends. Non-standard residues stand in square brackets, D forms with d. Residues, ends and D or L forms follow the SMILES beside them. Triazole bridges read from a SMILES are 1,4-linked. Lys(N3) = [N-]=[N+]=NCCCC[C@H](N)C(=O)O; Cha = N[C@@H](CC1CCCCC1)C(=O)O; Pra = C#CC[C@H](N)C(=O)O

Key:
[1] = target: T1, human ghrelin receptor (GHSR) (Homo sapiens, UniProt Q92847, C146S/C304S); assay: Bimane fluorescence assay on purified ghrelin receptor in nanodiscs; assay type: biochemical; details: bimane labeled GHSR, in presence of JMV1843
T1 construct: integrin α5 fragment (N); polyhistidine tag (C); made in house; host or cells: E. coli BL21(DE3)
T1 sequence (Q92847 whole entry C146S/C304S, the tested form may be a part): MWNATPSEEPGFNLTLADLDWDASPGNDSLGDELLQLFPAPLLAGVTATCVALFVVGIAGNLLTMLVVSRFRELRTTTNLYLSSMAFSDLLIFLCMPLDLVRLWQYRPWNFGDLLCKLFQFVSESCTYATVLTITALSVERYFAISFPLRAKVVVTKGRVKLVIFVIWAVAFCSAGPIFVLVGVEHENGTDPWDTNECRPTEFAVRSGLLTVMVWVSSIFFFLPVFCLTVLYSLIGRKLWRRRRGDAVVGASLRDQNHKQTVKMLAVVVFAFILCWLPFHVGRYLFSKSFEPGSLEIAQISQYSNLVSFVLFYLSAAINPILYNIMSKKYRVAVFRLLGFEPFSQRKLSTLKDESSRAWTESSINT
Source text: Another assay that can be used to analyse conformational changes associated with GPCR activation and/or to identify G protein peptidomimetics that are capable of stabilizing a GPCR in an active conformational state is the bimane fluorescence assay or bimane assay. This assay works through labelling of a cysteine residue in the lower part of the TM6 of a GPCR with a bimane-fluorophore (monobromobimane (MB)). Binding of an agonist to the GPCR causes a conformational change and outward movement of TM6 that places bimane in a more solved-exposed position, which will alter its maximum emission wavelength. In particular, increasing concentrations of agonist result in a concentration-dependent red-shift of the maximum emission wavelength (λmax) of the bimane-fluorophore probe. In the presence of a G protein or an active state stabilizing G protein peptidomimetic λmax may increase further. For example, a bimane labelled ghrelin receptor (such as a cysmin mutant (i.e. mutant with minimal cysteines) of human ghrelin receptor (also referred to herein as growth hormone secretagogue receptor (GHSR) (e.g. the mutant as described in Damian et al. (2021) wherein monobromobimane (MB) fluorescent probe is attached to Cys^255) and ghrelin receptor agonist JMV1843 may be used.
The bimane fluorescence assays on the ghrelin receptor were performed as described in Damian et al. (2021. Nat. Commun. 12:1-15). Briefly, E. coli bacteria (BL21(DE3)) were transformed with a vector encoding the human ghrelin receptor with an integrin α5 fragment at the N-terminus and a polyhistidine tag at the C-terminus. The receptors were then purified and reconstituted into lipidated nanodiscs. The monobromobimane labeling was performed by incubating the receptors, with a unique reactive cysteine at position 255, during 16 h in the dark at 4° C. and in the presence of 0.1 mM tris(2-carboxyethyl)phosphine (TCEO). The reaction was terminated with 5 mM L-cysteine and unreacted monobromobimane was removed using a Zeba™ Spin desalting column.
For the fluorescence assay, the labeled receptor was incubated during 2 h at 20° C. (0.2 μM final concentration), in the absence or presence of the full agonist JMV1843 (20 μM) and in the absence or presence of either the peptidomimetics at varying molar ratios or the purified Gαqβ1γ2 heterotrimer, at a 1:5 receptor-to-G protein molar ratio. Afterwards, the fluorescence experiments were performed on a Horiba Fluoromax-4 TCSP spectrofluorimeter. For each scan, the excitation wavelength (λexc) was set at 380 nm and emission was collected between 440 nm and 520 nm.
The bimane assay is used on GPCRs to detect conformational changes associated with receptor activation. This assay functions through the labelling of a cysteine, which is one of the least frequently occurring amino acids in proteins. Additionally, the majority of the extracellular cysteines form disulfide bonds, which, together with the transmembrane cysteines, are inert to thiol-reactive reagents. Additionally, some of the intracellular cysteines in the C-terminal tail may carry post-translational modifications which reduces the number of reactive cysteines in the receptor (Tian et al. 2017. Chem. Rev. 117:186-245). For GHSR, the remaining reactive cysteine residues C146 (ICL2) and C304 (extracellular end of TM7) were replaced by serines (cysmin mutant, i.e. mutant with minimal cysteines), to allow the monobromobimane (MB) fluorescent probe to be specifically attached to Cys255 in the lower part of TM6 (FIG. 5a) (Damian et al. 2021). In this assay, bimane is chosen because of its small size and sensitivity to the polarity of its environment (Yao et al. 2006. Nat Chem. Biol. 2:417-422). Binding of a ligand to the receptor, causes a conformational change and outward movement of TM6 that places bimane in a more solvent-exposed position, which alters its maximum emission wavelength. […]

[2] = Solubility in aqueous buffer; details: aqueous buffer for RLA
HEK293 1C8 cells = assay: MTT cytotoxicity assay; assay type: cell-based, human; details: varying concentrations up to 40 μM, 3 h 45 min
Protocol: Cells were washed two times with PBS and incubated with 3-(4,5-dimethylthiazol-2-yl)-2,5-diphenyltetrazolium bromide (MTT) during 3 h, at 37° C. Afterwards, cells were washed once with PBS and then incubated for 10 min with DMSO. Plates were analysed with a Tecan Spark 10 M microplate reader.
An MTT assay was used to assess the cytotoxicity of the non-fluorescent Gq/11 peptidomimetics of Example 5. An MTT assay is a colorimetric test that evaluates the cell metabolic activity and reflects the cell viability.

Row | solubility in aqueous buffer [2] | Compound | conformational change in the receptor [1] | cytotoxicity / viability (HEK293 1C8 cells)
1 | not soluble | Ac-FNDCKDIILQMNLREYNLV-OH [SBL-GQ-07] | not able to induce a conformational change | 
2 |  | CC[C@H](C)[C@H](NC(=O)[C@@H]1CCCCn2cc(nn2)C[C@H](NC(=O)[C@H](C)NC(=O)[C@H](Cc2ccccc2)NC(=O)[C@H](CCCNC(=N)N)NC(=O)[C@H](CCCNC(=N)N)NC(=O)[C@H](CCCNC(=N)N)NC(=O)[C@@H](N)CCCNC(=N)N)C(=O)N[C@@H](C(C)C)C(=O)N[C@@H](CCCCN)C(=O)N[C@@H](CC(=O)O)C(=O)N1)C(=O)N[C@@H](CC(C)C)C(=O)N[C@@H](CCC(N)=O)C(=O)N[C@@H](CC(C)C)C(=O)N[C@@H](CC(N)=O)C(=O)N[C@@H](CC(C)C)C(=O)N[C@@H](CCCCN)C(=O)N[C@@H](CCC(=O)O)C(=O)N[C@@H](Cc1ccc(O)cc1)C(=O)N[C@@H](CC(N)=O)C(=O)N[C@@H](CC(C)C)C(=O)N[C@H](C(=O)O)C(C)C [SBL-GQ-14] (H-RRRRFA[Pra]VKD[Lys(N3)]ILQLNLKEYNLV-OH; triazole 7-11) |  | only a slight decrease in viability
3 | not soluble | CC[C@H](C)[C@H](NC(=O)[C@H](CC(=O)O)NC(=O)[C@H](CCCCN)NC(=O)[C@H](CS)NC(=O)[C@H](CC(=O)O)NC(=O)[C@H](CC(N)=O)NC(=O)[C@H](Cc1ccccc1)NC(C)=O)C(=O)N[C@H](C(=O)N[C@@H](CC(C)C)C(=O)N[C@@H](CCC(N)=O)C(=O)N[C@@H](CCSC)C(=O)N[C@@H](CC(N)=O)C(=O)N[C@@H](CC(C)C)C(=O)N[C@@H](CCCNC(=N)N)C(=O)N[C@@H](CCC(=O)O)C(=O)N[C@@H](Cc1ccc(O)cc1)C(=O)N[C@@H](CC(N)=O)C(=O)N[C@@H](CC1CCCCC1)C(=O)N[C@H](C(=O)O)C(C)C)[C@@H](C)CC [SBL-GQ-09] (Ac-FNDCKDIILQMNLREYN[Cha]V-OH) | not able to induce a conformational change | 
